From ChEMBL document CHEMBL5131540, “Optimizing Shape Complementarity Enables the Discovery of Potent Tricyclic BCL6 Inhibitors” (J Med Chem, 2022)
In brackets after ≈: the same amount, converted by molar mass.

What was measured:
in vitro = conditions: PAMPA, pH 7.4
[1] = Kinetic aqueous solubility of the compound in 4% DMSO/HEPES buffer at pH 8 incubated for 20 hrs by NMR analysis; assay type: physicochemical; conditions: read-out: Kinetic_solubility

Papp (in vitro) [×10⁻⁶ cm/s] | solubility kinetic at 20 h [1] [µM] | Structure (SMILES)
< 0.1 | – | CCNc1cc(=O)[nH]c2ccc(Nc3ccnc(Cl)c3C#N)cc12
– | 190 (≈ 75.2 µg/mL) | C[C@@H]1CCOc2c(c3cc(Nc4ccnc(Cl)c4C#N)ccc3n(C)c2=O)N1
